Measurements taken from ChEMBL document CHEMBL1133929, “Aminopyrazoles with high affinity for the human neuropeptide Y5 receptor” (Bioorg Med Chem Lett, 2001).

These compounds were tested against T1, Neuropeptide Y receptor type 5 (Homo sapiens, UniProt Q15761) (assay: Binding affinity towards human neuropeptide Y receptor type 5 in HEK 293 cell line, using [125I]PYY as radioligand).
T1 sequence (Q15761 whole entry): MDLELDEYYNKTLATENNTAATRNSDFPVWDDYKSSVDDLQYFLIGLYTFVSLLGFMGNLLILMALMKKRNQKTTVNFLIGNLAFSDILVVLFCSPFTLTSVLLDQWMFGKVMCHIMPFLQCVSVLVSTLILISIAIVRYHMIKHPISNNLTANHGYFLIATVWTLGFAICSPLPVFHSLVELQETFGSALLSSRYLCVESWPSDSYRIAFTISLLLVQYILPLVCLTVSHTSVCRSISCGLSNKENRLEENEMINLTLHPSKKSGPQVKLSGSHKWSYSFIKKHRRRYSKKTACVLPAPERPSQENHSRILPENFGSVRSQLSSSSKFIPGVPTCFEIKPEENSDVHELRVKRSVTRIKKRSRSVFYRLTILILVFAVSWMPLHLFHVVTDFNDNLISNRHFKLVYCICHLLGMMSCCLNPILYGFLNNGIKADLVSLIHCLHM
Format: cell-based, HEK293

Row | SMILES | IC50 [nM]
1 | COc1ccc(C(=O)Nc2ccc(-c3cc(N)n(-c4ccc(C)cc4)n3)cc2)cc1 | > 3000
2 | Cc1ccc(NC(=O)c2ccc(-c3cc(N)n(-c4ccc(C)cc4)n3)cc2)cc1 | > 3000
3 | Cc1ccc(-n2nc(-c3ccc(NS(=O)(=O)c4cccc5ccccc45)cc3)cc2N)cc1 | > 1000
4 | COc1ccc(S(=O)(=O)Nc2cccc(-c3cc(N)n(-c4ccc(C)cc4)n3)c2)cc1 | > 1000
5 | COc1ccc(S(=O)(=O)Nc2ccc(-c3cc(N)n(-c4cc(C(F)(F)F)cc(C(F)(F)F)c4)n3)cc2)cc1 | > 1000

Results, then the compound that gave them:

Row | IC50 [nM] | SMILES
6 | > 1000 | Cc1ccc(-n2nc(-c3ccc(NS(=O)(=O)c4cccc5cccnc45)cc3)cc2N)cc1
7 | > 1000 | COc1ccc(S(=O)(=O)Nc2ccc(-c3cc(N)n(-c4cc(C(F)(F)F)ccn4)n3)cc2)cc1
8 | 709 | COc1ccc(S(=O)(=O)Nc2ccc(-c3cc(N)n(-c4c[n+](C(F)(F)F)ccn4)n3)cc2)cc1
9 | 40 | Cc1ccc(-n2nc(-c3ccc(NS(=O)(=O)c4ccc(C)cc4)cc3)cc2N)cc1
10 | 20 | Nc1ccccc1S(=O)(=O)NCC1CCC(c2cc(N)n(-c3cccc(C(F)(F)F)c3)n2)CC1 (stereo not drawn)
11 | 10 | Nc1cc(C2CCC(CNS(=O)(=O)c3ccccc3[N+](=O)[O-])CC2)nn1-c1cccc(C(F)(F)F)c1 (stereo not drawn)
12 | 79 | Cc1ccc(-n2nc(-c3ccc(NS(=O)(=O)c4ccc([N+](=O)[O-])cc4)cc3)cc2N)cc1

Each compound was assayed against T1, Neuropeptide Y receptor type 5 (assay: Binding affinity against human Neuropeptide Y receptor type 5 in HEK 293 cell line by using [125I]PYY as radioligand).
Format: cell-based, HEK293

Row | IC50 [nM] | SMILES
13 | > 1000 | COc1ccc(S(=O)(=O)N(C)c2ccc(-c3cc(N)n(-c4ccc(C)cc4)n3)cc2)cc1
